Entries after “also recorded” stand apart in the source; their conditions may differ.
Tests used:
[1] = tested on: Salmonella typhimurium TA100; test: Mini Ames experiment, strain TA100; type: cell-based; details: TA100, regardless of the presence or absence of S9
Procedure: (§1) Histidine auxotrophic strains of Salmonella typhimurium were cultured in a special medium with quite a low content of histidine. The strains were difficult to divide due to lack of nutrition. If a test compound has mutagenicity, a large number of cells will undergo reverse mutation, synthesizing histidine by themselves and developing into colonies visible to the naked eye. In view of the close relationship between mutagenicity and carcinogenesis of chemicals, this method has been widely used in screening carcinogens. Some chemicals need metabolic activation to induce mutagenicity. Mammalian microsomal enzyme S9 can be added into the test system to eliminate the influence of metabolic activation on generation of mutagenicity.
(§2) […] Mini Ames test with compound 50561

[2] = Pharmacokinetic evaluation, plasma and brain concentrations; type: in vivo, ICR mice
Text: Distribution of a medicament in the body is one of the important indicators to determine the dose and efficacy of the medicament. Thus, excellent candidate compounds should have good pharmacokinetic characteristics. In addition, since the compound of the present invention is intended to be used for the treatment of Alzheimer's disease, which is a disease of the central nervous system, the distribution pattern of the compound in the brain and the blood is also one of the subjects to be investigated. In this experiment, compound 50561 was administered to mice […] or by gavage, and the concentrations of the compound in blood and brain were measured at specific time points to determine the pharmacokinetic parameters.
Forty-eight male ICR mice purchased from Shanghai Sippr-BK Lab. Animal Co. Ltd were used in this experiment. The oral group was fasted for 10-14 hours before administration, and feeding was restored 4 hours after administration. Samples were collected from the intravenous administration group 0.083 h, 0.25 h, 0.5 h, 1 h, 2 h, 4 h, 8 h, and 24 h after administration, respectively; while for the oral administration group, about 0.5 mL of blood was collected from the heart 0.25 h, 0.5 h, 1 h, 2 h, 4 h, 6 h, 8 h, and 24 h after administration, respectively. Heparin sodium was used for anticoagulation. Blood samples were collected and placed on ice, and plasma was separated by centrifugation (centrifugation conditions: 8000 rpm, 6 minutes, 4C). The collected plasma was stored at −80° C. before analysis. After collecting plasma samples, brain tissues were collected, washed with normal saline, water-absorbed by filter paper, weighed immediately, and then placed in labeled tubes (one tube for one brain tissue). The samples to be tested were temporarily placed on ice before being stored in a −80° C. refrigerator.
The analysis methods of biological samples and the analysis of all samples were done by Medicilon Pharmaceutical Technology (Shanghai) Co., Ltd. The intraday accuracy evaluation of the quality control samples was carried out while analyzing the samples, and the accuracy of over 66.7% of the quality control samples was required to be between 80-120%.
When calculating the pharmacokinetic parameters, the BLQ before Cmax (including “No peak”) was calculated as 0; BLQ occurring after Cmax (including “No peak”) was not involved in the calculation. WinNonlin Professional V 5.2 (Pharsight, USA) was adopted to calculate the following pharmacokinetic parameters: AUC(0-t), AUC(0-∞), T1/2, MRT(0-∞), Cmax, and Tmax. The tissue/plasma ratio was to be calculated by the following formula based on the blood concentration data at different time points: Tissue/plasma ratio (mL/g)=tissue blood concentration/plasma blood concentration.

[3] = tested on: Salmonella typhimurium TA98; test: Mini Ames experiment, strain TA98; type: cell-based; details: TA98, regardless of the presence or absence of S9
Procedure: as §1, §2

O=C1C=C(OCc2ccc(F)cc2)[C@H](Cc2ccccc2)N1 [Compound 50561]
change in the number of colonies / mutagenicity [1]: did not cause more than twice of a change in the number of colonies; also recorded: no obvious mutagenicity
Brain/plasma ratio ([2]; IV 1 mg/kg, 0.083 hr, G1-1): 2.604 mL/G
Brain/plasma ratio ([2]; IV 1 mg/kg, 0.083 hr, G1-2): 2.645 mL/G
Brain/plasma ratio ([2]; IV 1 mg/kg, 0.083 hr, G1-3): 2.249 mL/G
Brain/plasma ratio ([2]; IV 1 mg/kg, 0.083 hr, Mean): 2.499 mL/G
Brain/plasma ratio ([2]; IV 1 mg/kg, 0.25 hr, G1-1): 2.451 mL/G
Brain/plasma ratio ([2]; IV 1 mg/kg, 0.25 hr, G1-2): 2.415 mL/G
Brain/plasma ratio ([2]; IV 1 mg/kg, 0.25 hr, G1-3): 2.159 mL/G
Brain/plasma ratio ([2]; IV 1 mg/kg, 0.25 hr, Mean): 2.342 mL/G
Brain/plasma ratio ([2]; IV 1 mg/kg, 0.5 hr, G1-1): 2.540 mL/G
Brain/plasma ratio ([2]; IV 1 mg/kg, 0.5 hr, G1-2): 2.564 mL/G
Brain/plasma ratio ([2]; IV 1 mg/kg, 0.5 hr, G1-3): 2.361 mL/G
Brain/plasma ratio ([2]; IV 1 mg/kg, 0.5 hr, Mean): 2.488 mL/G
Brain/plasma ratio ([2]; IV 1 mg/kg, 1 hr, G1-1): 2.330 mL/G
Brain/plasma ratio ([2]; IV 1 mg/kg, 1 hr, G1-2): 3.941 mL/G
Brain/plasma ratio ([2]; IV 1 mg/kg, 1 hr, G1-3): 2.751 mL/G
Brain/plasma ratio ([2]; IV 1 mg/kg, 1 hr, Mean): 3.007 mL/G
Blood concentration ([2]; IV 1 mg/kg, 2 hr, G1-1): BLQ
Brain tissue concentration ([2]; IV 1 mg/kg, 2 hr, G1-1): BLQ
Blood concentration ([2]; IV 1 mg/kg, 2 hr, G1-2): BLQ
Brain tissue concentration ([2]; IV 1 mg/kg, 2 hr, G1-2): BLQ
Blood concentration ([2]; IV 1 mg/kg, 2 hr, G1-3): BLQ
Brain tissue concentration ([2]; IV 1 mg/kg, 2 hr, G1-3): BLQ
Blood concentration ([2]; IV 1 mg/kg, 4 hr, G1-1): BLQ
Brain tissue concentration ([2]; IV 1 mg/kg, 4 hr, G1-1): BLQ
Blood concentration ([2]; IV 1 mg/kg, 4 hr, G1-2): BLQ
Brain tissue concentration ([2]; IV 1 mg/kg, 4 hr, G1-2): BLQ
Blood concentration ([2]; IV 1 mg/kg, 4 hr, G1-3): BLQ
Brain tissue concentration ([2]; IV 1 mg/kg, 4 hr, G1-3): BLQ
Blood concentration ([2]; IV 1 mg/kg, 8 hr, G1-1): BLQ
Brain tissue concentration ([2]; IV 1 mg/kg, 8 hr, G1-1): BLQ
Blood concentration ([2]; IV 1 mg/kg, 8 hr, G1-2): BLQ
Brain tissue concentration ([2]; IV 1 mg/kg, 8 hr, G1-2): BLQ
Blood concentration ([2]; IV 1 mg/kg, 8 hr, G1-3): BLQ
Brain tissue concentration ([2]; IV 1 mg/kg, 8 hr, G1-3): BLQ
Blood concentration ([2]; IV 1 mg/kg, 24 hr, G1-1): BLQ
Brain tissue concentration ([2]; IV 1 mg/kg, 24 hr, G1-1): BLQ
Blood concentration ([2]; IV 1 mg/kg, 24 hr, G1-2): BLQ
Brain tissue concentration ([2]; IV 1 mg/kg, 24 hr, G1-2): BLQ
Blood concentration ([2]; IV 1 mg/kg, 24 hr, G1-3): BLQ
Brain tissue concentration ([2]; IV 1 mg/kg, 24 hr, G1-3): BLQ
Brain/plasma ratio ([2]; PO 10 mg/kg, 0.25 hr, G2-1): 1.948 mL/G
Brain/plasma ratio ([2]; PO 10 mg/kg, 0.25 hr, G2-2): 1.590 mL/G
Brain/plasma ratio ([2]; PO 10 mg/kg, 0.25 hr, G2-3): 2.093 mL/G
Brain/plasma ratio ([2]; PO 10 mg/kg, 0.25 hr, Mean): 1.877 mL/G
Brain/plasma ratio ([2]; PO 10 mg/kg, 0.5 hr, G2-1): 2.435 mL/G
Brain/plasma ratio ([2]; PO 10 mg/kg, 0.5 hr, G2-2): 2.027 mL/G
Brain/plasma ratio ([2]; PO 10 mg/kg, 0.5 hr, G2-3): 1.980 mL/G
Brain/plasma ratio ([2]; PO 10 mg/kg, 0.5 hr, Mean): 2.147 mL/G
Brain/plasma ratio ([2]; PO 10 mg/kg, 1 hr, G2-1): 2.485 mL/G
Brain/plasma ratio ([2]; PO 10 mg/kg, 1 hr, G2-2): 2.152 mL/G
Brain/plasma ratio ([2]; PO 10 mg/kg, 1 hr, G2-3): 2.158 mL/G
Brain/plasma ratio ([2]; PO 10 mg/kg, 1 hr, Mean): 2.265 mL/G
Brain/plasma ratio ([2]; PO 10 mg/kg, 2 hr, G2-1): 2.163 mL/G
Brain/plasma ratio ([2]; PO 10 mg/kg, 2 hr, G2-2): 2.454 mL/G
Brain/plasma ratio ([2]; PO 10 mg/kg, 2 hr, G2-3): 2.372 mL/G
Brain/plasma ratio ([2]; PO 10 mg/kg, 2 hr, Mean): 2.329 mL/G
Brain/plasma ratio ([2]; PO 10 mg/kg, 4 hr, G2-1): 2.373 mL/G
Brain/plasma ratio ([2]; PO 10 mg/kg, 4 hr, G2-2): 2.428 mL/G
Brain/plasma ratio ([2]; PO 10 mg/kg, 4 hr, G2-3): 1.355 mL/G
Brain/plasma ratio ([2]; PO 10 mg/kg, 4 hr, Mean): 2.052 mL/G
Brain/plasma ratio ([2]; PO 10 mg/kg, 6 hr, G2-1): 1.839 mL/G
Brain/plasma ratio ([2]; PO 10 mg/kg, 6 hr, G2-2): 2.764 mL/G
Brain/plasma ratio ([2]; PO 10 mg/kg, 6 hr, G2-3): 2.929 mL/G
Brain/plasma ratio ([2]; PO 10 mg/kg, 6 hr, Mean): 2.511 mL/G
Brain/plasma ratio ([2]; PO 10 mg/kg, 8 hr, G2-1): 1.575 mL/G
Brain/plasma ratio ([2]; PO 10 mg/kg, 8 hr, G2-2): 2.443 mL/G
Brain tissue concentration ([2]; PO 10 mg/kg, 8 hr, G2-3): BLQ
Brain/plasma ratio ([2]; PO 10 mg/kg, 8 hr, Mean): 2.009 mL/G
Blood concentration ([2]; PO 10 mg/kg, 24 hr, G2-1): BLQ
Brain tissue concentration ([2]; PO 10 mg/kg, 24 hr, G2-1): BLQ
Blood concentration ([2]; PO 10 mg/kg, 24 hr, G2-2): BLQ
Brain tissue concentration ([2]; PO 10 mg/kg, 24 hr, G2-2): BLQ
Blood concentration ([2]; PO 10 mg/kg, 24 hr, G2-3): BLQ
Brain tissue concentration ([2]; PO 10 mg/kg, 24 hr, G2-3): BLQ
blood-brain barrier permeability (content in brain tissue versus blood) ([2]; after intravenous injection and oral administration): good blood-brain barrier permeability
concentration at 0.083 h ([2]; male, ICR, mouse, brain, IV 1 mg/kg, 0.083 hr, G1-3, read-out: Brain tissue concentration): 977 ng/g
change in the number of colonies / mutagenicity [3]: did not cause more than twice of a change in the number of colonies; also recorded: no obvious mutagenicity

— patent US11332440B2, “4-oxo-alkylated tetramic acid compound, and preparation method thereof” (priority 2017, dated 2022)
